Experimental data taken from ChEMBL document CHEMBL4507287, “Data for DCP probe MRL-650” (2021).

Experiments:
[1] = biological target: Cyclin-dependent kinase-like 2 (Homo sapiens) (UniProt Q92772); settings: Compound concentration 1000.0 nM
[2] = test system: Receptor-type tyrosine-protein kinase FLT3 (Homo sapiens), P36888 [D835H]; settings: Compound concentration 1000.0 nM
[3] = test system: Tyrosine-protein kinase ABL1 (Homo sapiens), P00519 [Q252H]; settings: Compound concentration 1000.0 nM
[4] = biological target: Hormonally up-regulated neu tumor-associated kinase (Homo sapiens) (UniProt P57058); settings: Compound concentration 1000.0 nM
[5] = biological target: 5-hydroxytryptamine receptor 2A (Homo sapiens, UniProt P28223); settings: Compound concentration 10.0 uM
[6] = biological target: Non-receptor tyrosine-protein kinase TNK1 (Homo sapiens) (UniProt Q13470); settings: Compound concentration 1000.0 nM
[7] = biological target: SRSF protein kinase 2 (Homo sapiens) (UniProt P78362); settings: Compound concentration 1000.0 nM
Chain of SRSF protein kinase 2 (Homo sapiens) (P78362 whole entry, looked up): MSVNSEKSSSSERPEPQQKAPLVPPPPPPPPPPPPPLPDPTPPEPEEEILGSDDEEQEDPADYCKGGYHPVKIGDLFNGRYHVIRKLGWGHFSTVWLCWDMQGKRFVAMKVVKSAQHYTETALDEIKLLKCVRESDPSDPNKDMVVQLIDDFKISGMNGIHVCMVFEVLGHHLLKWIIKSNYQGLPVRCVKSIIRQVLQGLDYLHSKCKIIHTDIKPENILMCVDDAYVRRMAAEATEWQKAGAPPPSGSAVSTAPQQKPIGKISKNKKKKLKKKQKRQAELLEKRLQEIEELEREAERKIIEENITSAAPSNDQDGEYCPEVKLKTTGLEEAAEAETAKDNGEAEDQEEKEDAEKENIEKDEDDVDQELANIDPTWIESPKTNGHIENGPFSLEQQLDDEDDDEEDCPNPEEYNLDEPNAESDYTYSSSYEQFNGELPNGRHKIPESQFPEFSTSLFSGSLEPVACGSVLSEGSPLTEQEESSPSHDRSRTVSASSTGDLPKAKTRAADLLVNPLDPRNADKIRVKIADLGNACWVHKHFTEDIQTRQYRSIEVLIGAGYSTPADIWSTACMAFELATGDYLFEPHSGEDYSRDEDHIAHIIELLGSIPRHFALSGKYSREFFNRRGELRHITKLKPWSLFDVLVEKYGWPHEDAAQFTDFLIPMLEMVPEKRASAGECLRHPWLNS

[8] = test system: Epidermal growth factor receptor (Homo sapiens), P00533 [UNDEFINED MUTATION]; settings: Compound concentration 1000.0 nM
[9] = biological target: Serine/threonine-protein kinase WNK3 (Homo sapiens) (UniProt Q9BYP7); settings: Compound concentration 1000.0 nM
[10] = biological target: Serine/threonine-protein kinase tousled-like 2 (Homo sapiens) (UniProt Q86UE8); settings: Compound concentration 1000.0 nM
[11] = biological target: Calcium/calmodulin-dependent protein kinase type II subunit beta (Homo sapiens) (UniProt Q13554); settings: Compound concentration 1000.0 nM
[12] = biological target: Homeodomain-interacting protein kinase 1 (Homo sapiens) (UniProt Q86Z02); settings: Compound concentration 1000.0 nM
[13] = biological target: Serine/threonine-protein kinase 26 (Homo sapiens) (UniProt Q9P289); settings: Compound concentration 1000.0 nM
[14] = biological target: Protein-tyrosine kinase 2-beta (Homo sapiens) (UniProt Q14289); settings: Compound concentration 1000.0 nM
[15] = biological target: Rho-associated protein kinase 2 (Homo sapiens) (UniProt O75116); settings: Compound concentration 1000.0 nM
[16] = biological target: Atypical kinase COQ8B, mitochondrial (Homo sapiens) (UniProt Q96D53); settings: Compound concentration 1000.0 nM
[17] = test system: Tyrosine-protein kinase ABL1 (Homo sapiens), P00519 [E255K]; settings: Compound concentration 1000.0 nM
[18] = biological target: Cyclin-dependent kinase 9 (Homo sapiens) (UniProt P50750); settings: Compound concentration 1000.0 nM
[19] = biological target: Myosin-IIIb (Homo sapiens) (UniProt Q8WXR4); settings: Compound concentration 1000.0 nM
[20] = biological target: Tyrosine-protein kinase receptor UFO (Homo sapiens) (UniProt P30530); settings: Compound concentration 1000.0 nM
[21] = biological target: Serine/threonine-protein kinase BRSK2 (Homo sapiens) (UniProt Q8IWQ3); settings: Compound concentration 1000.0 nM
[22] = biological target: MAP kinase-activated protein kinase 5 (Homo sapiens) (UniProt Q8IW41); settings: Compound concentration 1000.0 nM
[23] = biological target: Activin receptor type-1 (Homo sapiens) (UniProt Q04771); settings: Compound concentration 1000.0 nM
[24] = biological target: Cyclin-dependent kinase 8 (Homo sapiens) (UniProt P49336); settings: Compound concentration 1000.0 nM
[25] = test system: Receptor-type tyrosine-protein kinase FLT3 (Homo sapiens), P36888 [UNDEFINED MUTATION]; settings: Compound concentration 1000.0 nM
[26] = biological target: Mitotic checkpoint serine/threonine-protein kinase BUB1 (Homo sapiens) (UniProt O43683); settings: Compound concentration 1000.0 nM
Chain of Mitotic checkpoint serine/threonine-protein kinase BUB1 (Homo sapiens) (O43683 whole entry, looked up): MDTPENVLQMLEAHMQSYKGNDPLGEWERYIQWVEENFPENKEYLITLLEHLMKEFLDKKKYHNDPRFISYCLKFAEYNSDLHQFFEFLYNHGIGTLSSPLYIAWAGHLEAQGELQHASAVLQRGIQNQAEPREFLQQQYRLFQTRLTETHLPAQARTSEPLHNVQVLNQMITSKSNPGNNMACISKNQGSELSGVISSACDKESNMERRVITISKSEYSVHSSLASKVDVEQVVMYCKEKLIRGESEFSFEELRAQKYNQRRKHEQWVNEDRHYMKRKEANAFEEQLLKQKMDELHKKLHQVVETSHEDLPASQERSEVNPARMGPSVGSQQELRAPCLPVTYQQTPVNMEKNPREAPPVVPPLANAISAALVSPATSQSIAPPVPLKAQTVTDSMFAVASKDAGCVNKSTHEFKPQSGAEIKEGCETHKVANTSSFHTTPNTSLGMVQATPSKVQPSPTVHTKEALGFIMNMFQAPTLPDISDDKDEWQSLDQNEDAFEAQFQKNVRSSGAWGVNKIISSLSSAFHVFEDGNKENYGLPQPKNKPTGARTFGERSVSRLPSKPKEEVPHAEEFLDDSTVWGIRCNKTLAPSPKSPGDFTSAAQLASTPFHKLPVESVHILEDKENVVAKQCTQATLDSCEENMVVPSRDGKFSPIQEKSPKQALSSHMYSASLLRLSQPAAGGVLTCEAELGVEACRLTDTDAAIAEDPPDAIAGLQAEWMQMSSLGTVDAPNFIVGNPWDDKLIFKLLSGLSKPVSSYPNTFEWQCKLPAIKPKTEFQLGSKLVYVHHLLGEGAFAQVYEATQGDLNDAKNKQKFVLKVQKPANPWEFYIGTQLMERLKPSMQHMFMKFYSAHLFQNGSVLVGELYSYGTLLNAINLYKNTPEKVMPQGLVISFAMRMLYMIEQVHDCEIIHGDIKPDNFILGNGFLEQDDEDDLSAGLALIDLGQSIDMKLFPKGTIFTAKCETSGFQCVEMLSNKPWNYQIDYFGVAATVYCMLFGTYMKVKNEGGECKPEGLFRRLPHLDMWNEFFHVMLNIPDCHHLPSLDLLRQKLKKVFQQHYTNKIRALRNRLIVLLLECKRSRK

[27] = biological target: Calcium-dependent protein kinase 1 (Plasmodium falciparum) (UniProt P62344); settings: Compound concentration 1000.0 nM
[28] = biological target: Vascular endothelial growth factor receptor 3 (Homo sapiens) (UniProt P35916); settings: Compound concentration 1000.0 nM
[29] = test system: Epidermal growth factor receptor (Homo sapiens), P00533 [L858R]; settings: Compound concentration 1000.0 nM
[30] = biological target: Casein kinase I isoform delta (Homo sapiens) (UniProt P48730); settings: Compound concentration 1000.0 nM
Chain of Casein kinase I isoform delta (Homo sapiens) (P48730 whole entry, looked up, canonical isoform): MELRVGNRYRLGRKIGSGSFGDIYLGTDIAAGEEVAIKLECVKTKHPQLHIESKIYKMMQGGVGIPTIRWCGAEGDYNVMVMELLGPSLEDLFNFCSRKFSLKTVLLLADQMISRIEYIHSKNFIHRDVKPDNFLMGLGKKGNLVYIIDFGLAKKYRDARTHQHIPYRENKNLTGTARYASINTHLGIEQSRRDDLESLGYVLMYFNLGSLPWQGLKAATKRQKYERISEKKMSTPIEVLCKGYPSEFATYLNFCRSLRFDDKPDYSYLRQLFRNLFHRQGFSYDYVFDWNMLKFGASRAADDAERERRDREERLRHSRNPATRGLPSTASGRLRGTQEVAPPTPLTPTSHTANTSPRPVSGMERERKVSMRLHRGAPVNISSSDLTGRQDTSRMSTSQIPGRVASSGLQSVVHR

[31] = biological target: Proto-oncogene tyrosine-protein kinase Src (Homo sapiens) (UniProt P12931); settings: Compound concentration 1000.0 nM
[32] = biological target: Phosphatidylinositol 5-phosphate 4-kinase type-2 gamma (Homo sapiens) (UniProt Q8TBX8); settings: Compound concentration 1000.0 nM
[33] = biological target: Cyclin-G-associated kinase (Homo sapiens) (UniProt O14976); settings: Compound concentration 1000.0 nM
[34] = biological target: Histamine H1 receptor (Homo sapiens) (UniProt P35367); settings: Compound concentration 10.0 uM
[35] = test system: Phosphatidylinositol 4,5-bisphosphate 3-kinase catalytic subunit alpha isoform (Homo sapiens), P42336 [E545A]; settings: Compound concentration 1000.0 nM
[36] = biological target: Ribosomal protein S6 kinase alpha-2 (Homo sapiens) (UniProt Q15349); settings: Compound concentration 1000.0 nM
[37] = test system: Receptor-type tyrosine-protein kinase FLT3 (Homo sapiens), P36888 [K663Q]; settings: Compound concentration 1000.0 nM
[38] = biological target: GABA-A receptor; anion channel (Rattus norvegicus) (UniProt O09028+P15431+P18506+P18508+P19969+P20236+P23574+P23576+P28471+P28473+P30191+P62813+P63079+P63138+Q91ZM7+Q9ES14); settings: Compound concentration 10.0 uM
[39] = biological target: Bone morphogenetic protein receptor type-2 (Homo sapiens) (UniProt Q13873); settings: Compound concentration 1000.0 nM
[40] = biological target: Serine/threonine-protein kinase PAK 5 (Homo sapiens) (UniProt Q9P286); settings: Compound concentration 1000.0 nM
[41] = biological target: Serine/threonine-protein kinase MRCK beta (Homo sapiens) (UniProt Q9Y5S2); settings: Compound concentration 1000.0 nM
Chain of Serine/threonine-protein kinase MRCK beta (Homo sapiens) (Q9Y5S2 whole entry): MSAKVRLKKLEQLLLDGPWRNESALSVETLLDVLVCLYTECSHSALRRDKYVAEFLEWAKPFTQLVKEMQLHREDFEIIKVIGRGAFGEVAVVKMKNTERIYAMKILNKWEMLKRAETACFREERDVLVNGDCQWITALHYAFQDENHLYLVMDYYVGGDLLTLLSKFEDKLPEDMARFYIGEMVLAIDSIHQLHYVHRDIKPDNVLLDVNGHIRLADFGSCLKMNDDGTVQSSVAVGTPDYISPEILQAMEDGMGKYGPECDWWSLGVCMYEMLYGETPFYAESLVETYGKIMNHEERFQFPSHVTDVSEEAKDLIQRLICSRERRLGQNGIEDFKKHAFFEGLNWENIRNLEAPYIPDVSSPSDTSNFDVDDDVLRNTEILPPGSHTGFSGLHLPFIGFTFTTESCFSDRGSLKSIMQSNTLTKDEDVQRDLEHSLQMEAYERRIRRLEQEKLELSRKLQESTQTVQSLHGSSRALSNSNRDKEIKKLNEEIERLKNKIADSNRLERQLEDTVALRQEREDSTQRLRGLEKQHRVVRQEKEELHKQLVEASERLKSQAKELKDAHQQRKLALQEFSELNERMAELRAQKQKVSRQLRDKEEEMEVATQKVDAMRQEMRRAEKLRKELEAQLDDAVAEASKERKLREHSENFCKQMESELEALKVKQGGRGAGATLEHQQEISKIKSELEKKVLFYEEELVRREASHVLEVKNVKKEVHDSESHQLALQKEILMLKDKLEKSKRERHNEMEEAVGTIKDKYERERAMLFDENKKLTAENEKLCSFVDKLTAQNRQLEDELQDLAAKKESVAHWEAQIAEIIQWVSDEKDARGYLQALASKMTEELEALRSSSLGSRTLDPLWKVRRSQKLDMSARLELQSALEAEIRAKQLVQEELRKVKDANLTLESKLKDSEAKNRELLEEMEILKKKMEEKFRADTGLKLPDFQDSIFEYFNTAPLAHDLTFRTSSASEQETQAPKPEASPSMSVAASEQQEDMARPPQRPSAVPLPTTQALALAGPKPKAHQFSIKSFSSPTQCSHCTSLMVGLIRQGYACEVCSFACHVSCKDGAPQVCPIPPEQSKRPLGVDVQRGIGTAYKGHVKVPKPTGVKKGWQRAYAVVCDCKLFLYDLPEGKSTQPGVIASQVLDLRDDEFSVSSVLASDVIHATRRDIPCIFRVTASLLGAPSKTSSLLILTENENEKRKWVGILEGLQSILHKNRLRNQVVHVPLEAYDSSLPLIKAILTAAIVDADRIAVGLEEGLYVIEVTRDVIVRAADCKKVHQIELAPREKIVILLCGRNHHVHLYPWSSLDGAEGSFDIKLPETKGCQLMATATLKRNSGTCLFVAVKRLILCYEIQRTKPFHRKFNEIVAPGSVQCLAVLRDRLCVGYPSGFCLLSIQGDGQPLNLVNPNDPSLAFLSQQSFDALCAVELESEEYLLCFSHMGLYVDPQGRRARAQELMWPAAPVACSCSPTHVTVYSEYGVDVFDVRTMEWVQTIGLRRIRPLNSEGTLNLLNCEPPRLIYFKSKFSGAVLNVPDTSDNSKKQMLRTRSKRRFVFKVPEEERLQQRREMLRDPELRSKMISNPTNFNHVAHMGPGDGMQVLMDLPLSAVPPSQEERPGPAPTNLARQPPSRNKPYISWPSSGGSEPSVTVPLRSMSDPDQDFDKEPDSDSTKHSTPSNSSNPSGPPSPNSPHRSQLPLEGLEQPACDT

[42] = biological target: Mitogen-activated protein kinase 4 (Homo sapiens) (UniProt P31152); settings: Compound concentration 1000.0 nM
Chain of Mitogen-activated protein kinase 4 (Homo sapiens) (P31152 whole entry): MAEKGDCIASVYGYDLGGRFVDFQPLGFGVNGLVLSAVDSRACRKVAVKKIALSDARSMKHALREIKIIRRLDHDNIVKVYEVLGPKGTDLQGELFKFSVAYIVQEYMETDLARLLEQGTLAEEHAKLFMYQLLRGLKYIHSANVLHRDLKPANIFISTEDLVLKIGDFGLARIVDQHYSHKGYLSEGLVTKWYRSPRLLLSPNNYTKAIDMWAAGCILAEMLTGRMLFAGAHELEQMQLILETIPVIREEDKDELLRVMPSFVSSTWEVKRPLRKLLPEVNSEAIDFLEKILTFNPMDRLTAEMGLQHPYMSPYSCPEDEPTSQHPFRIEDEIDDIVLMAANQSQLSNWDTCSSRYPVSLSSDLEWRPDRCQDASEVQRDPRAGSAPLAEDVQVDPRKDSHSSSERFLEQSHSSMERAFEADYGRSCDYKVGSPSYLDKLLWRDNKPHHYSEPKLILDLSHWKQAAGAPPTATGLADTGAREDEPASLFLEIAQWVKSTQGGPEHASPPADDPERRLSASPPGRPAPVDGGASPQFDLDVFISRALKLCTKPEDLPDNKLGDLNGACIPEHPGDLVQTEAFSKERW

[43] = biological target: Dual specificity mitogen-activated protein kinase kinase 6 (Homo sapiens) (UniProt P52564); settings: Compound concentration 1000.0 nM

Chain of Cyclin-dependent kinase-like 2 (Homo sapiens) (Q92772 whole entry): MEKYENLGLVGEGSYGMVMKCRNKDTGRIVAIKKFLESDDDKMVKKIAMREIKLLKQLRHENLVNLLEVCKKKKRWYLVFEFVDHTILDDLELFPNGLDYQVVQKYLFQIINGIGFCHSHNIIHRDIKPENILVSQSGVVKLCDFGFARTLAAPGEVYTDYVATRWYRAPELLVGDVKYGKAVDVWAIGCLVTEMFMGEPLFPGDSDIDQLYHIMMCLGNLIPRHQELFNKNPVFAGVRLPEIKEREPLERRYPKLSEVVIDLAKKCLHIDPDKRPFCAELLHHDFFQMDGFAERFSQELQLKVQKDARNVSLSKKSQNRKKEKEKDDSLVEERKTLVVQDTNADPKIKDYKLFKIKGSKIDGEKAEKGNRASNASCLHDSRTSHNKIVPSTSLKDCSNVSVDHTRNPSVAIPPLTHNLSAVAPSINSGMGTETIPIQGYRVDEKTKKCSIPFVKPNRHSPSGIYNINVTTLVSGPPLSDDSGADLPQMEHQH

`CC(=O)Nc1c(C(C)=O)c(=O)n(C)c2nc(-c3ccc(Cl)cc3Cl)c(-c3ccc(Cl)cc3)cc12` [NAPHTHYRIDINONE] gave a residual activity [1] of 100%, a residual activity [2] of 100% and a residual activity [3] of 100%. The residual activity [4] was 100%, the inhibition [5] was 21.8% and the residual activity [6] was 100%. It also gave a residual activity [7] of 100%, a residual activity [8] of 100% and a residual activity [9] of 100%. The residual activity [10] was 100%, the residual activity [11] was 100% and the residual activity [12] was 99%. It also gave a residual activity [13] of 87%, a residual activity [14] of 100% and a residual activity [15] of 100%. The residual activity [16] was 100%, the residual activity [17] was 94% and the residual activity [18] was 100%. It also gave a residual activity [19] of 100%, a residual activity [20] of 100% and a residual activity [21] of 100%. For the same molecule, the residual activity [22] was 100%, the residual activity [23] was 100% and the residual activity [24] was 100%. For the same molecule, the residual activity [25] was 100%, the residual activity [26] was 92% and the residual activity [27] was 95%. It also gave a residual activity [28] of 100%, a residual activity [29] of 100% and a residual activity [30] of 100%. The residual activity [31] was 100%, the residual activity [32] was 100% and the residual activity [33] was 100%. For the same molecule, the inhibition [34] was -1.39%, the residual activity [35] was 85% and the residual activity [36] was 100%. The residual activity [37] was 100%, the inhibition [38] was 30.2% and the residual activity [39] was 100%. The residual activity [40] was 100%, the residual activity [41] was 100% and the residual activity [42] was 79%. The residual activity [43] was 100%.

`CC(=O)c1c(NS(C)(=O)=O)c2cc(-c3ccc(Cl)cc3)c(-c3ccc(Cl)cc3Cl)nc2n(C)c1=O` [MRL-CB1-NC] gave a residual activity [1] of 99%, a residual activity [2] of 96% and a residual activity [3] of 100%. It also gave a residual activity [4] of 100%, an inhibition [5] of 78.8% and a residual activity [6] of 100%. It also gave a residual activity [7] of 100%, a residual activity [8] of 91% and a residual activity [9] of 80%. It also gave a residual activity [10] of 99%, a residual activity [11] of 100% and a residual activity [12] of 96%. For the same molecule, the residual activity [13] was 84%, the residual activity [14] was 100% and the residual activity [15] was 100%. For the same molecule, the residual activity [16] was 97%, the residual activity [17] was 100% and the residual activity [18] was 91%. It also gave a residual activity [19] of 99%, a residual activity [20] of 100% and a residual activity [21] of 90%. For the same molecule, the residual activity [22] was 89%, the residual activity [23] was 93% and the residual activity [24] was 83%. The residual activity [25] was 94%, the residual activity [26] was 76% and the residual activity [27] was 99%. The residual activity [28] was 100%, the residual activity [29] was 98% and the residual activity [30] was 100%. The residual activity [31] was 100%, the residual activity [32] was 100% and the residual activity [33] was 100%. It also gave an inhibition [34] of 18.8%, a residual activity [35] of 100% and a residual activity [36] of 100%. It also gave a residual activity [37] of 100%, an inhibition [38] of 60.9% and a residual activity [39] of 100%. It also gave a residual activity [40] of 98%, a residual activity [41] of 81% and a residual activity [42] of 100%. It also gave a residual activity [43] of 100%.
